In patent US12091656B2, “Method for generating higher order genome editing libraries” (Johann Wolfgang Goethe-Universität Frankfurt am Main, priority 2016, dated 2024):

What was measured:
RPE1 cells [1] = assay: Doxorubicin effect on RPE1 cell viability (unperturbed conditions); type: cell-based, human; details: within 4 days
RPE1 cells [2] = assay: Titration of CYSLTR2 antagonists against Doxorubicin, AlamarBlue cell viability assay; type: cell-based, human; details: 4 days
Description: FIG. 6: Identifying Doxorubicin resistance with an optimized 3Cs-gRNA library. A) Experimental scheme illustrating the usage of hTERT-RPE1 cells, transduced with lentiviral particles (MOI=1) and selected with 1 μM Doxorubicin for three weeks. B) NGS- and bioinformatically-based identification of Doxorubicin-resistance inducing gRNAs and their location within annotated human genomic DNA. C) The CYSLTR2 gene is a reproducible protein-coding hit for which two chemical inhibitors are commercially available. Both inhibitors are titrated versus increasing concentrations of Doxorubicin and induce resistance to Doxorubicin.
Of all remaining gRNAs, 45.6% are located in coding regions, 22.2% are in introns and 10.5% are in non-coding (RNA coding) regions (FIG. 6b). However, 21.7% of gRNAs are located in genomic regions for which no biotype could be assigned, indicating a gap of knowledge for those regions (FIG. 6b). To validate some of the findings in a CRISPR/Cas independent manner, the protein-coding hit gene CYSLTR2 was chosen for which two chemical antagonists are commercially available. The inventors titrated increasing concentrations of Doxorubicin against increasing concentrations of the two compounds (BayCysLTR2 and Bay u9773) and incubated drug exposed RPE1 cells for 4 days after which they were subject to the cell viability assays AlamarBlue.

| SMILES | reduction of RPE1 cell viability (RPE1 cells [1]) | strength of the reversion effect compared with the other CYSLTR2 antagonist (RPE1 cells [2]; FIG. 6c) | reversion of the cytotoxic effect of Doxorubicin (RPE1 cells [2]; increasing concentrations titrated against increasing Doxorubicin) |
| --- | --- | --- | --- |
| COc1cccc2c1C(=O)c1c(O)c3c(c(O)c1C2=O)C[C@@](O)(C(=O)CO)C[C@@H]3O[C@H]1C[C@H](N)[C@H](O)[C@H](C)O1 [Doxorubicin] | robust and dose-dependent reduction of RPE1 cell viability |  |  |
| CCCCC/C=C\C\C=C/C=C/C=C/[C@@H](Sc1ccc(C(=O)O)cc1)[C@@H](O)CCCC(=O)O [Bay u9773] |  | reproducibly stronger effect | able to revert the cytotoxic effect of Doxorubicin in a dose-dependent manner |
